Data from the supplement of paper PMC10307832.

What was measured:
Assay in all cases: relative viability (nuclei count vs DMSO), 5 days (fraction); higher = more cells survive
[1] = compound: CN[C@@H]1C[C@H]2O[C@@](C)([C@@H]1OC)n1c3ccccc3c3c4c(c5c6ccccc6n2c5c31)C(=O)NC4 [Staurosporine] + CS(=O)(=O)N1CCN(Cc2cc3nc(-c4cccc5[nH]ncc45)nc(N4CCOCC4)c3s2)CC1 [Pictilisib] (partner 1 µM)
Outline: (§1)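 Lung cancer cell lines in 1536-well plates were dosed by pin tool the day after seeding, either with one drug alone or with a fixed anchor-drug dose plus five library-drug doses (not always all listed) in √10 steps. After 5 days, cells were fixed and their nuclei stained in one step (final 0.05% Triton X-100, 1% formaldehyde, 1 ug/ml Hoechst), then counted on 4× images. Relative viability is the nuclei count in treated wells divided by that in vehicle wells. Values are medians of duplicate plates.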

[2] = compound: CC1=C(CC(=O)O)c2cc(F)ccc2/C1=C\c1ccc([S+](C)[O-])cc1 [Sulindac] + Cc1nc(Nc2ncc(C(=O)Nc3c(C)cccc3Cl)s2)cc(N2CCN(CCO)CC2)n1 [Dasatinib] (partner 0.075 µM)
Outline: as §1

[3] = compound: CN[C@@H]1C[C@H]2O[C@@](C)([C@@H]1OC)n1c3ccccc3c3c4c(c5c6ccccc6n2c5c31)C(=O)NC4 [Staurosporine] + Cc1nc(Nc2ncc(C(=O)Nc3c(C)cccc3Cl)s2)cc(N2CCN(CCO)CC2)n1 [Dasatinib] (partner 0.075 µM)
Outline: as §1

[4] = compound: CN[C@@H]1C[C@H]2O[C@@](C)([C@@H]1OC)n1c3ccccc3c3c4c(c5c6ccccc6n2c5c31)C(=O)NC4 [Staurosporine] + NC(=O)Nc1cc(-c2cccc(F)c2)sc1C(=O)N[C@H]1CCCNC1 [AZD7762] (partner 0.2 µM)
Outline: as §1

Cell Line | relative viability ([1]; first compound 0.005 µM) | relative viability ([1]; first compound 0.01581 µM) | relative viability ([1]; first compound 0.05 µM) | relative viability ([1]; first compound 0.1581 µM) | relative viability ([1]; first compound 0.5 µM) | relative viability ([2]; first compound 0.08 µM) | relative viability ([2]; first compound 0.253 µM) | relative viability ([2]; first compound 0.8 µM) | relative viability ([2]; first compound 2.53 µM) | relative viability ([2]; first compound 8 µM) | relative viability ([3]; first compound 0.005 µM) | relative viability ([3]; first compound 0.01581 µM) | relative viability ([3]; first compound 0.05 µM) | relative viability ([3]; first compound 0.1581 µM) | relative viability ([3]; first compound 0.5 µM) | relative viability ([4]; first compound 0.005 µM) | relative viability ([4]; first compound 0.05 µM) | relative viability ([4]; first compound 0.1581 µM) | relative viability ([4]; first compound 0.5 µM) | relative viability ([4]; first compound 0.01581 µM)
A549 | 0.259 | 0.0929 | 0.0679 | 0.061 | 0.0434 |  |  |  |  |  |  |  |  |  |  |  |  |  |  | 
COR-L23 | 0.32 | 0.148 | 0.127 | 0.0645 | 0.0442 | 0.478 | 0.419 | 0.438 | 0.489 | 0.744 | 0.309 | 0.186 | 0.17 | 0.112 | 0.0512 |  |  |  |  | 
COR-L 105 | 0.303 | 0.223 | 0.242 | 0.26 | 0.556 | 0.307 | 0.42 | 0.305 | 0.291 | 0.393 | 0.281 |  | 0.158 | 0.155 | 0.157 |  |  |  |  | 
Calu-6 | 0.584 | 0.298 | 0.222 | 0.0573 | 0.0441 |  |  |  |  |  |  |  |  |  |  |  |  |  |  | 
EBC-1 | 0.167 | 0.112 | 0.126 | 0.154 | 0.139 |  |  |  |  |  |  |  |  |  |  |  |  |  |  | 
HCC-44 | 0.147 | 0.152 | 0.13 | 0.133 | 0.131 |  |  |  |  |  |  |  |  |  |  | 0.999 | 0.911 | 0.565 | 0.307 | 
IA-LM | 0.266 | 0.323 | 0.256 | 0.0809 | 0.0459 |  |  |  |  |  |  |  |  |  |  |  |  |  |  | 
NCI-H520 | 0.484 | 0.206 | 0.39 | 0.178 | 0.159 | 0.241 | 0.201 |  | 0.204 | 0.226 | 0.278 | 0.251 | 0.215 | 0.176 | 0.171 |  |  |  |  | 
NCI-H522 |  |  |  |  |  | 0.841 | 0.962 | 0.891 | 0.917 | 0.908 | 1.08 |  | 0.743 | 0.497 | 0.527 | 0.953 | 0.715 | 0.639 | 0.404 | 0.866
NCI-H661 | 0.345 | 0.265 | 0.277 | 0.245 | 0.271 | 0.966 | 0.842 | 0.759 | 0.807 | 1.08 | 0.67 | 0.349 | 0.381 | 0.347 | 0.123 |  |  |  |  | 
NCI-H1299 | 0.121 | 0.119 | 0.109 | 0.0457 | 0.0455 |  |  |  |  |  |  |  |  |  |  |  |  |  |  | 
NCI-H1563 | 0.749 | 0.594 | 0.577 | 0.498 | 0.433 | 0.414 | 0.451 | 0.476 | 0.418 | 0.497 | 0.43 | 0.434 | 0.411 | 0.247 | 0.433 |  |  |  |  | 
NCI-H1623 |  |  |  |  |  | 0.552 | 0.444 | 0.525 | 0.501 | 0.519 | 0.635 | 0.425 | 0.651 | 0.553 | 0.41 |  |  |  |  | 
NCI-H1648 |  |  |  |  |  |  |  |  |  |  |  |  |  |  |  | 0.611 | 0.373 | 0.412 | 0.388 | 0.409
NCI-H1650 | 0.284 | 0.141 | 0.138 | 0.15 | 0.107 | 0.304 | 0.353 |  | 0.321 | 0.341 | 0.24 | 0.225 | 0.166 | 0.127 | 0.119 |  |  |  |  | 
NCI-H1703 | 0.223 | 0.175 | 0.191 | 0.163 | 0.114 |  |  |  |  |  |  |  |  |  |  | 0.121 | 0.107 | 0.083 | 0.118 | 0.0954
NCI-H2009 | 0.195 | 0.146 | 0.182 | 0.115 | 0.0836 | 0.297 | 0.322 | 0.305 | 0.256 | 0.344 | 0.197 | 0.158 | 0.152 | 0.153 | 0.116 |  |  |  |  | 
NCI-H2023 | 0.134 | 0.106 | 0.11 | 0.0886 | 0.0609 | 0.91 | 0.726 | 0.424 | 0.567 | 0.617 | 0.365 | 0.198 | 0.126 | 0.0785 | 0.0455 |  |  |  |  | 
NCI-H2228 | 0.187 | 0.139 | 0.325 | 0.116 | 0.0619 | 0.592 | 0.596 | 0.375 | 0.549 | 0.526 | 0.328 | 0.245 | 0.232 | 0.069 | 0.0624 |  |  |  |  | 
NCI-H2342 |  |  |  |  |  | 0.276 | 0.339 | 0.287 | 0.303 | 0.319 | 0.297 | 0.243 | 0.26 | 0.234 | 0.27 | 0.642 | 0.373 | 0.335 | 0.328 | 0.412
SK-LU-1 | 0.412 | 0.187 | 0.145 | 0.137 | 0.124 | 0.157 | 0.162 | 0.168 | 0.143 | 0.202 | 0.183 |  |  | 0.102 | 0.1 |  |  |  |  | 
SK-MES-1 | 0.328 | 0.265 | 0.173 | 0.182 | 0.19 | 0.336 | 0.367 | 0.366 | 0.352 | 0.331 | 0.21 | 0.22 | 0.154 | 0.126 | 0.106 |  |  |  |  | 
SW 900 |  |  |  |  |  |  | 0.582 |  | 0.524 | 0.623 | 0.473 | 0.185 | 0.21 | 0.191 | 0.158 | 0.413 | 0.31 | 0.157 | 0.151 | 0.337
SW 1573 | 0.275 | 0.18 | 0.123 | 0.0832 | 0.0842 | 0.392 | 0.691 |  | 0.574 | 0.497 | 0.129 | 0.116 | 0.0863 | 0.0538 | 0.0496 |  |  |  |  | 
